Test results: patent publication US20120101157A1, “4,5-Diamino-3-Halo-2-Hydroxybenzoic Acid Derivatives and Preparations Thereof” (NATIONAL DEFENSE MEDICAL CENTER, priority 2010, published 2012)
≈ marks a conversion by molar mass, not a printed value. Entries after “also recorded” stand apart in the source; their conditions may differ. Where two headings read alike, the source gives them in different places.

Tests used:
in vitro = settings: dog
H1N1 virus = assay: microbe, parasite or virus in culture; assay type: cell-based; settings: for MIC: Influenza A virus, read-out: MIC (minimum inhibitory concentration, cell survival rate >75%); for anti-H1N1 / anti-influenza activity (in words) / SI (selective index=CC50/MIC): H1N1 in MDCK cells
H5N1 = settings: read-out: EC50 (50% effective concentration); H5N1, according to previous studies; cited from earlier work
[1] = H1N1 at 0.01 MOI in MDCK cells, 48 h, MTT

SMILES | CC50 (in vitro) [µg/mL] | MIC (H1N1 virus; H1N1, 48 h) [µg/mL] | EC50 (H5N1) [µM] | melting point [°C] | anti-H1N1 / anti-influenza activity (in words) (H1N1 virus) | MIC (H1N1 virus; [1]) [µg/mL] | SI (selective index=CC50/MIC) (H1N1 virus)
Nc1ccc(C(=O)O)c(O)c1 [PAS, p-aminosalicylic acid, reference compound] | > 100 | > 100 | – | – | – | – | –
NC(=O)c1ncn([C@@H]2O[C@H](CO)[C@@H](O)[C@H]2O)n1 [Ribavirin, reference compound] | – | 1.56 (≈ 6.39 µM) | 6 to 22 | – | – | – | –
CC(=O)Nc1cc(O)c(C(=O)O)cc1N [compound 6a] | > 100 | – | – | 295 to 297 | better anti-H1N1 activity; also recorded: effectively inhibit influenza viral activity | 50 (≈ 238 µM) | –
COC(=O)c1cc(N)c(NC(C)=O)cc1O [compound 6b] | > 100 | – | – | 204 to 206 | better anti-H1N1 activity; also recorded: effectively inhibit influenza viral activity; also recorded: preferred anti-influenza activity | 1.56 (≈ 6.96 µM) | –
CCCC(=O)Nc1cc(O)c(C(=O)OCC)cc1N [compound 6e] | > 100 | – | – | 135 to 137 | better anti-H1N1 activity; also recorded: effectively inhibit influenza viral activity; also recorded: preferred anti-influenza activity | 1.56 (≈ 5.86 µM) | >64
COC(=O)c1cc(N)c(NC(C)=O)c(Br)c1O [compound 6f, methyl 4-(acetamido)-5-amino-3-bromo-2-hydroxybenzoate] | > 100 | – | – | 217 to 219 | better anti-H1N1 activity; also recorded: effectively inhibit influenza viral activity; also recorded: preferred anti-influenza activity | 0.78 (≈ 2.57 µM) | >128
CC(=O)Nc1cc(O)c(C(=O)O)cc1NC(=N)N [compound 7a, 4-(acetamido)-5-guanidino-2-hydroxybenzoic acid] | > 100 | – | – | 334 to 357 | better anti-H1N1 activity; also recorded: effectively inhibit influenza viral activity | 25 (≈ 99.1 µM) | –
COC(=O)c1cc(NC(=N)N)c(NC(C)=O)cc1O [compound 7b, methyl 4-(acetamido)-5-guanidino-2-hydroxybenzoate] | > 100 | – | – | 233 to 234 | better anti-H1N1 activity; also recorded: effectively inhibit influenza viral activity | 25 (≈ 93.9 µM) | –
CCCC(=O)Nc1cc(O)c(C(=O)OCC)cc1NC(=N)N [compound 7e, ethyl 4-(butyramido)-5-guanidino-2-hydroxybenzoate] | > 100 | – | – | – | no inhibiting activity | > 100 | –
COC(=O)c1cc(NC(=N)N)c(NC(C)=O)c(Br)c1O [compound 7f, methyl 4-(acetamido)-3-bromo-5-guanidino-2-hydroxybenzoate] | > 100 | – | – | 238 to 240 | no inhibiting activity | > 100 | –
CC(=O)Nc1c(N)cc(C(=O)O)c(O)c1Br [compound 8, 4-(acetamido)-5-amino-3-bromo-2-hydroxybenzoic acid] | > 100 | – | – | 210 to 211 | better anti-H1N1 activity; also recorded: effectively inhibit influenza viral activity; also recorded: preferred anti-influenza activity | 1.56 (≈ 5.4 µM) | –
